From US20170210723A1, “MOLECULES HAVING PESTICIDAL UTILITY, AND INTERMEDIATES, COMPOSITIONS, AND PROCESSES, RELATED THERETO” (priority 2016, published 2017)

How the values were obtained:
Assay type in all cases: in vivo
[1] = system: Beet Armyworm (Spodoptera exigua); assay: Bioassays on BAW, 128-well diet tray assay; conditions: Spodoptera exigua, 168 h; 50 μg/cm^2 on artificial diet, second instar larvae, five to seven days; read-out: BAW % Control (or Mortality) rating
[2] = system: Cabbage Looper (Trichoplusia ni); assay: Bioassays on CL, 128-well diet tray assay; conditions: Trichoplusia ni, 168 h; 50 μg/cm^2 on artificial diet, second instar larvae, five to seven days; read-out: CL % Control (or Mortality) rating
Outline: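 Second-instar larvae (1–5 per well) were fed diet surface-treated with 50 μg/cm^2 compound, eight wells each. After five to seven days at 25° C. under a 14:10 photoperiod, mortality was scored per well and the eight wells averaged.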

[3] = system: Yellow Fever Mosquito (Aedes aegypti); assay: Bioassays on Yellow Fever Mosquito larvae, 96-well plate; conditions: from 4000 ppm DMSO master plate, about 1 day-old larvae, 3 days
Procedure: Master plates containing 400 μg of a molecule dissolved in 100 μL of dimethyl sulfoxide (DMSO) (equivalent to a 4000 ppm solution) are used. A master plate of assembled molecules contains 15 μL per well. To this plate, 135 μL of a 90:10 water:acetone mixture is added to each well. A robot (Biomek® NXP Laboratory Automation Workstation) is programmed to dispense 15 μL aspirations from the master plate into an empty 96-well shallow plate (“daughter” plate). There are 6 reps (“daughter” plates) created per master. The created daughter plates are then immediately infested with YFM larvae.
The day before plates are to be treated, mosquito eggs are placed in Millipore water containing liver powder to begin hatching (4 g. into 400 mL). After the daughter plates are created using the robot, they are infested with 220 μL of the liver powder/larval mosquito mixture (about 1 day-old larvae). After plates are infested with mosquito larvae, a non-evaporative lid is used to cover the plate to reduce drying. Plates are held at room temperature for 3 days prior to grading. After 3 days, each well is observed and scored based on mortality. The results are indicated in the table entitled “Table ABC: Biological Results” (See Table Section). AGRICULTURALLY ACCEPTABLE ACID ADDITION SALTS, SALT DERIVATIVES, SOLVATES, ESTER DERIVATIVES, POLYMORPHS, ISOTOPES, AND RADIONUCLIDES

| Structure (SMILES) | mortality at 50 µg/cm2 [1] [%] | mortality at 50 µg/cm2 [2] [%] | YFM % Control (or Mortality) rating [3] |
| --- | --- | --- | --- |
| Cc1cc(/C=C/C(c2cc(Br)cc(Br)c2)C(F)(F)F)ccc1C(=O)N[C@H](C)C[S+]([O-])CC(F)(F)F (stereo partly drawn) [F73, 4-((E)-3-(3,5-Dibromophenyl)-4,4,4-trifluorobut-1-en-1-yl)-2-methyl-N-((2R)-1-((2,2,2-trifluoroethyl)sulfinyl)propan-2-yl)benzamide] | 50 to 100 | 50 to 100 | A (80-100) |
| O=C(NC1(CSCC(F)(F)F)CC1)c1ccc(/C=C/C(c2cc(Cl)c(Cl)c(Cl)c2)C(F)(F)F)cc1C(F)(F)F (stereo not drawn) [F110, (E)-4-(4,4,4-Trifluoro-3-(3,4,5-trichlorophenyl)but-1-en-1-yl)-N-(1-(((2,2,2-trifluoroethyl)thio)methyl)cyclopropyl)-2-(trifluoromethyl)benzamide] | 50 to 100 | 50 to 100 | A (80-100) |
| C[C@H](C[S+]([O-])CC(F)(F)F)NC(=O)c1ccc(/C=C/C(c2cc(Br)c(Cl)c(Br)c2)C(F)(F)F)cc1C(F)(F)F (stereo partly drawn) [F42, 4-((E)-3-(3,5-Dibromo-4-chlorophenyl)-4,4,4-trifluorobut-1-en-1-yl)-N-((2R)-1-((2,2,2-trifluoroethyl)sulfinyl)propan-2-yl)-2-(trifluoromethyl)benzamide] | 50 to 100 | 50 to 100 | A (80-100) |
| C[C@H](CCS(=O)(=O)CC(F)(F)F)NC(=O)c1ccc(/C=C/C(c2cc(Cl)c(Cl)c(Cl)c2)C(F)(F)F)cc1C(F)(F)F (stereo partly drawn) [F106, 4-((E)-4,4,4-Trifluoro-3-(3,4,5-trichlorophenyl)but-1-en-1-yl)-N—((R)-4-((2,2,2-trifluoroethyl)sulfonyl)butan-2-yl)-2-(trifluoromethyl)benzamide] | 50 to 100 | 50 to 100 | A (80-100) |
| C[C@H](CS(=O)(=O)CC(F)(F)F)NC(=O)c1ccc(/C=C/C(c2cc(Cl)cc(Cl)c2)C(C)(F)F)cc1Cl (stereo partly drawn) [F132, 2-Chloro-4-((E)-3-(3,5-dichlorophenyl)-4,4-difluoropent-1-en-1-yl)-N—((R)-1-((2,2,2-trifluoroethyl)sulfonyl)propan-2-yl)benzamide] | 50 to 100 | 50 to 100 | B (More than 0-Less than 80) |
| CCc1cc(/C=C/C(c2cc(Cl)c(Cl)c(Cl)c2)C(F)(F)F)ccc1C(=O)N[C@H](C)CSCC(F)(F)F (stereo partly drawn) [F54, 2-Ethyl-4-((E)-4,4,4-trifluoro-3-(3,4,5-trichlorophenyl)but-1-en-1-yl)-N—((R)-1-((2,2,2-trifluoroethyl)thio)propan-2-yl)benzamide] | 50 to 100 | 50 to 100 | A (80-100) |
| CC[S+]([O-])C[C@@H](C)NC(=O)c1ccc(/C=C/C(c2cc(Cl)c(Cl)c(Cl)c2)C(F)(F)F)cc1C(F)(F)F (stereo partly drawn) [F69, N-((2R)-1-(Ethylsulfinyl)propan-2-yl)-4-((E)-4,4,4-trifluoro-3-(3,4,5-trichlorophenyl)but-1-en-1-yl)-2-(trifluoromethyl)benzamide] | 50 to 100 | 50 to 100 | A (80-100) |
| C[C@H](C[S+]([O-])CC(F)(F)F)NC(=O)c1ccc(/C=C/C(c2cc(Cl)c(Cl)c(Cl)c2)C(F)(F)F)cc1Br (stereo partly drawn) [F39, 2-Bromo-4-((E)-4,4,4-trifluoro-3-(3,4,5-trichlorophenyl)but-1-en-1-yl)-N-((2R)-1-((2,2,2-trifluoroethyl)sulfinyl)propan-2-yl)benzamide] | 50 to 100 | 50 to 100 | A (80-100) |
| Cc1cc(/C=C/C(c2cc(Cl)cc(Cl)c2)C(F)(F)F)ccc1C(=O)N[C@H](C)CSCC(F)(F)F (stereo partly drawn) [F89, 4-((E)-3-(3,5-Dichlorophenyl)-4,4,4-trifluorobut-1-en-1-yl)-2-methyl-N—((R)-1-((2,2,2-trifluoroethyl)thio)propan-2-yl)benzamide] | 50 to 100 | 50 to 100 | A (80-100) |
| CC(C)C[S+]([O-])C[C@@H](C)NC(=O)c1ccc(/C=C/C(c2cc(Cl)c(Cl)c(Cl)c2)C(F)(F)F)cc1C(F)(F)F (stereo partly drawn) [F87, N-((2R)-1-(Isobutylsulfinyl)propan-2-yl)-4-((E)-4,4,4-trifluoro-3-(3,4,5-trichlorophenyl)but-1-en-1-yl)-2-(trifluoromethyl)benzamide] | 50 to 100 | 50 to 100 | A (80-100) |
| C[C@H](C[S+]([O-])CC(F)(F)F)NC(=O)c1ccc(/C=C/C(c2cc(Cl)cc(Cl)c2)C(F)(F)F)cc1Cl (stereo partly drawn) [F94, 2-Chloro-4-((E)-3-(3,5-dichlorophenyl)-4,4,4-trifluorobut-1-en-1-yl)-N-((2R)-1-((2,2,2-trifluoroethyl)sulfinyl)propan-2-yl)benzamide] | 50 to 100 | 50 to 100 | A (80-100) |
| C[C@H](CSCC(F)(F)F)NC(=O)c1ccc(/C=C/C(c2cc(Cl)c(Cl)c(C=O)c2)C(F)(F)F)cc1C(F)(F)F (stereo partly drawn) [F100, 4-((E)-3-(3,4-Dichloro-5-formylphenyl)-4,4,4-trifluorobut-1-en-1-yl)-N—((R)-1-((2,2,2-trifluoroethyl)thio)propan-2-yl)-2-(trifluoromethyl)benzamide] | 50 to 100 | 50 to 100 | B (More than 0-Less than 80) |
| CC(C)(CSCC(F)(F)F)NC(=O)c1ccc(/C=C/C(c2cc(Cl)c(Cl)c(Cl)c2)C(F)(F)F)cc1C(F)(F)F (stereo not drawn) [F44, (E)-N-(2-methyl-1-((2,2,2-trifluoroethyl)thio)propan-2-yl)-4-(4,4,4-trifluoro-3-(3,4,5-trichlorophenyl)but-1-en-1-yl)-2-(trifluoromethyl)benzamide] | 50 to 100 | 50 to 100 | A (80-100) |
| C[C@H](CS(=O)(=O)CC(F)(F)F)NC(=O)c1ccc(/C=C/C(c2cc(Br)cc(Br)c2)C(F)(F)F)cc1Cl (stereo partly drawn) [F65, 2-Chloro-4-((E)-3-(3,5-dibromophenyl)-4,4,4-trifluorobut-1-en-1-yl)-N—((R)-1-((2,2,2-trifluoroethyl)sulfonyl)propan-2-yl)benzamide] | 50 to 100 | 50 to 100 | A (80-100) |
| C[C@H](CS(=O)(=O)CC(F)(F)F)NC(=O)c1ccc(/C=C/C(c2cc(Cl)c(F)c(Cl)c2)C(C)(F)F)cc1C(F)(F)F (stereo partly drawn) [F131, 4-((E)-3-(3,5-Dichloro-4-fluorophenyl)-4,4-difluoropent-1-en-1-yl)-N—((R)-1-((2,2,2-trifluoroethyl)sulfonyl)propan-2-yl)-2-(trifluoromethyl)benzamide] | 50 to 100 | 50 to 100 | D (No activity noticed in this bioassay) |
| Cc1cc(/C=C/C(c2cc(Cl)c(Cl)c(Cl)c2)C(F)(F)F)ccc1C(=O)N[C@H](C)C[S+]([O-])CC(F)(F)F (stereo partly drawn) [F46, 2-Methyl-4-((E)-4,4,4-trifluoro-3-(3,4,5-trichlorophenyl)but-1-en-1-yl)-N-((2R)-1-((2,2,2-trifluoroethyl)sulfinyl)propan-2-yl)benzamide] | 50 to 100 | 50 to 100 | A (80-100) |
| C[C@H](CS(=O)(=O)CC(F)(F)F)NC(=O)c1ccc(/C=C/C(c2cc(Cl)cc(Cl)c2)C(F)(F)F)cc1Cl (stereo partly drawn) [F95, 2-Chloro-4-((E)-3-(3,5-dichlorophenyl)-4,4,4-trifluorobut-1-en-1-yl)-N—((R)-1-((2,2,2-trifluoroethyl)sulfonyl)propan-2-yl)benzamide] | 50 to 100 | 50 to 100 | A (80-100) |
| C=CCSC[C@@H](C)NC(=O)c1ccc(/C=C/C(c2cc(Cl)c(Cl)c(Cl)c2)C(F)(F)F)cc1C(F)(F)F (stereo partly drawn) [F101, N—((R)-1-(Allylthio)propan-2-yl)-4-((E)-4,4,4-trifluoro-3-(3,4,5-trichlorophenyl)but-1-en-1-yl)-2-(trifluoromethyl)benzamide] | 50 to 100 | 50 to 100 | A (80-100) |
| C[C@H](CS(=O)(=O)CC(F)(F)F)NC(=O)c1ccc(/C=C/C(c2cc(Cl)c(F)c(Cl)c2)C(F)(F)F)cc1C(F)(F)F (stereo partly drawn) [F36, 4-((E)-3-(3,5-Dichloro-4-fluorophenyl)-4,4,4-trifluorobut-1-en-1-yl)-N—((R)-1-((2,2,2-trifluoroethyl)sulfonyl)propan-2-yl)-2-(trifluoromethyl)benzamide] | 50 to 100 | 50 to 100 | A (80-100) |
